Reference: the supplement of paper PMC11061612

Legend:
[1] = tested on: RKN (Other Solid Carcinomas); assay: Bliss excess, mean over the matrix (fraction); higher = more synergy
Procedure, shortened: (§1)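 Cell lines grown in DMEM/F12 or RPMI with 10% FBS were plated in 1536-well plates and held 24 hours at 37°C, 5% CO2 before 72 hours of exposure to two-drug dose matrices, with DMSO typically at 0.2%. CellTiter-Glo 2.0 luminescence gave viability, which was converted to inhibition. Vehicle wells were set to 0 and blank wells to 1. Combination Emax is the second-highest inhibition in the matrix, and Bliss excess is the observed combination effect minus the expected EA + EB − EA·EB, where EA and EB are the single-agent effects.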

SF539 (Glioblastoma) = assay: as above
Procedure, shortened: as §1

GB-1 (Glioblastoma) = assay: as above
Procedure, shortened: as §1

[2] = tested on: KE-37 (T-Lymphoblastic Leukemia); assay: combination Emax (second highest fraction inhibited in the dose matrix, 72 h); higher = more inhibition; extreme values may be limits of the assay
Procedure, shortened: as §1

[3] = tested on: MFE-280 (Endometrial Carcinoma); assay: as above
Procedure, shortened: as §1

[4] = tested on: RERF-GC-1B (Gastric Carcinoma); assay: as above
Procedure, shortened: as §1

[5] = tested on: RCM-1 (Colorectal Carcinoma); assay: as above
Procedure, shortened: as §1

[6] = tested on: PC-3_[JPC-3] (Lung Adenocarcinoma); assay: as above
Procedure, shortened: as §1

[7] = tested on: NCI-H446 (Small Cell Lung Carcinoma); assay: as above
Procedure, shortened: as §1

[8] = tested on: CAL-62 (Thyroid Gland Carcinoma); assay: as above
Procedure, shortened: as §1

[9] = tested on: VAL (B-Cell Non-Hodgkin's Lymphoma); assay: as above
Procedure, shortened: as §1

[10] = tested on: COLO-680N (Esophageal Squamous Cell Carcinoma); assay: as above
Procedure, shortened: as §1

SF268 (Low Grade Glioma) = assay: as above
Procedure, shortened: as §1

A2058 (Melanoma) = assay: as above
Procedure, shortened: as §1

[11] = tested on: OVMIU (Ovarian Carcinoma); assay: as above
Procedure, shortened: as §1

[12] = tested on: NCI-H2342 (Lung Adenocarcinoma); assay: as above
Procedure, shortened: as §1

WM793B (Melanoma) = assay: as above
Procedure, shortened: as §1

[13] = tested on: PANC-03-27 (Pancreatic Carcinoma); assay: as above
Procedure, shortened: as §1

[14] = tested on: MKN45 (Gastric Carcinoma); assay: as above
Procedure, shortened: as §1

[15] = tested on: CAL-120 (Breast Carcinoma); assay: as above
Procedure, shortened: as §1
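For Bliss excess, mean over the matrix in this document: after 72 h of two-drug dosing.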

CC(=O)c1c(C)c2cnc(Nc3ccc(N4CCNCC4)cn3)nc2n(C2CCCC2)c1=O [Palbociclib] + Cc1c2c(nn1C)CSCc1cc(n(C)n1)CSc1cc(c3ccccc3c1)OCCCc1c(C(=O)O)n(C)c3c-2c(Cl)ccc13 [AZD5991] (first compound max 10 µM, 7x7, partner max 1 µM)
Bliss excess [1]: -0.0557 | Bliss excess (SF539 (Glioblastoma)): -0.0637 | Bliss excess (GB-1 (Glioblastoma)): -0.102 | combination Emax [2]: 0.687 | combination Emax [3]: 0.227 | combination Emax [4]: 0.784 | combination Emax [5]: 0.327 | combination Emax [6]: 0.241 | combination Emax [7]: 0.556 | combination Emax [8]: 0.308 | combination Emax [9]: 0.717 | combination Emax [10]: 0.237 | combination Emax (SF268 (Low Grade Glioma)): 0.362 | combination Emax (A2058 (Melanoma)): 0.753 | combination Emax [11]: 0.27 | combination Emax [12]: 0.348 | combination Emax (WM793B (Melanoma)): 0.432 | combination Emax [13]: 0.202 | combination Emax [14]: 0.498 | combination Emax [15]: 0.134

CCc1c2c(nc3ccc(O)cc13)-c1cc3c(c(=O)n1C2)COC(=O)[C@]3(O)CC [SN-38] + CN(C)CCCOc1ccc(-c2ccc3ncc4c(c3c2)n(C2CCOCC2)c(=O)n4C)cn1 [AZD0156] (first compound max 0.3 µM, 7x7, partner max 1 µM)
Bliss excess [1]: 0.0057 | Bliss excess (SF539 (Glioblastoma)): 0.0216 | Bliss excess (GB-1 (Glioblastoma)): -0.0374 | combination Emax [2]: 1 | combination Emax [3]: 0.611 | combination Emax [4]: 0.788 | combination Emax [5]: 0.86 | combination Emax [6]: 0.732 | combination Emax [7]: 0.818 | combination Emax [8]: 0.872 | combination Emax [9]: 0.944 | combination Emax [10]: 0.412 | combination Emax (SF268 (Low Grade Glioma)): 0.902 | combination Emax (A2058 (Melanoma)): 0.401 | combination Emax [11]: 0.32 | combination Emax [12]: 0.225 | combination Emax (WM793B (Melanoma)): 0.85 | combination Emax [13]: 0.773 | combination Emax [14]: 0.815 | combination Emax [15]: 0.381

COc1cccc(OCCCN)c1-c1cc(Nc2cnc(C#N)cn2)n[nH]1 [Prexasertib] + CCc1c2c(nc3ccc(O)cc13)-c1cc3c(c(=O)n1C2)COC(=O)[C@]3(O)CC [SN-38] (first compound max 1 µM, 7x7, partner max 0.3 µM)
Bliss excess [1]: 0.134 | Bliss excess (SF539 (Glioblastoma)): -0.0091 | Bliss excess (GB-1 (Glioblastoma)): -0.0438 | combination Emax [2]: 1 | combination Emax [3]: 0.936 | combination Emax [4]: 0.994 | combination Emax [5]: 0.887 | combination Emax [6]: 0.802 | combination Emax [7]: 1 | combination Emax [8]: 0.884 | combination Emax [9]: 0.961 | combination Emax [10]: 0.685 | combination Emax (SF268 (Low Grade Glioma)): 0.937 | combination Emax (A2058 (Melanoma)): 0.924 | combination Emax [11]: 0.571 | combination Emax [12]: 0.283 | combination Emax (WM793B (Melanoma)): 0.896 | combination Emax [13]: 0.954 | combination Emax [14]: 0.853 | combination Emax [15]: 0.85

Cn1cnc2c(F)c(Nc3ccc(Br)cc3Cl)c(C(=O)NOCCO)cc21 [Selumetinib] + C=CCn1c(=O)c2cnc(Nc3ccc(N4CCN(C)CC4)cc3)nc2n1-c1cccc(C(C)(C)O)n1 [AZD1775] (first compound max 10 µM, partner max 1 µM)
Bliss excess [1]: -0.0397 | Bliss excess (SF539 (Glioblastoma)): -0.025 | Bliss excess (GB-1 (Glioblastoma)): -0.0522 | combination Emax [2]: 0.947 | combination Emax [3]: 0.212 | combination Emax [4]: 0.788 | combination Emax [5]: 0.637 | combination Emax [6]: 0.452 | combination Emax [7]: 0.925 | combination Emax [8]: 0.607 | combination Emax [9]: 0.732 | combination Emax [10]: 0.181 | combination Emax (SF268 (Low Grade Glioma)): 0.473 | combination Emax (A2058 (Melanoma)): 0.685 | combination Emax [11]: 0.498 | combination Emax [12]: 0.353 | combination Emax (WM793B (Melanoma)): 0.534 | combination Emax [13]: 0.815 | combination Emax [14]: 0.8 | combination Emax [15]: 0.326

Cc1c2c(nn1C)CSCc1cc(n(C)n1)CSc1cc(c3ccccc3c1)OCCCc1c(C(=O)O)n(C)c3c-2c(Cl)ccc13 [AZD5991] + Cc1cc2ncnn2cc1Nc1ncc2c(n1)n(C1CCOCC1)c(=O)n2C [AZD7648] (first compound max 1 µM, 7x7, partner max 10 µM)
Bliss excess [1]: -0.0151 | Bliss excess (SF539 (Glioblastoma)): 0.0057 | Bliss excess (GB-1 (Glioblastoma)): -0.0429 | combination Emax [2]: 0.975 | combination Emax [3]: 0.437 | combination Emax [4]: 0.987 | combination Emax [5]: 0.241 | combination Emax [6]: 0.289 | combination Emax [7]: 0.648 | combination Emax [8]: 0.439 | combination Emax [9]: 0.744 | combination Emax [10]: 0.19 | combination Emax (SF268 (Low Grade Glioma)): 0.243 | combination Emax (A2058 (Melanoma)): 0.452 | combination Emax [11]: 0.547 | combination Emax [12]: 0.317 | combination Emax (WM793B (Melanoma)): 0.32 | combination Emax [13]: 0.261 | combination Emax [14]: 0.504 | combination Emax [15]: 0.252

CN(C)CCCOc1ccc(-c2ccc3ncc4c(c3c2)n(C2CCOCC2)c(=O)n4C)cn1 [AZD0156] + CCN(CCO)CCCOc1ccc2c(Nc3cc(CC(=O)Nc4cccc(F)c4)[nH]n3)ncnc2c1 [AZD2811] (first compound max 1 µM, 7x7, partner max 1 µM)
Bliss excess [1]: -0.0417 | Bliss excess (SF539 (Glioblastoma)): -0.0196 | Bliss excess (GB-1 (Glioblastoma)): -0.034 | combination Emax [2]: 1 | combination Emax [3]: 0.47 | combination Emax [4]: 0.423 | combination Emax [5]: 0.161 | combination Emax [6]: 0.101 | combination Emax [7]: 0.838 | combination Emax [8]: 0.182 | combination Emax [9]: 0.801 | combination Emax [10]: 0.0884 | combination Emax (SF268 (Low Grade Glioma)): 0.142 | combination Emax (A2058 (Melanoma)): 0.0924 | combination Emax [11]: 0.144 | combination Emax [12]: 0.145 | combination Emax (WM793B (Melanoma)): 0.323 | combination Emax [13]: 0.2 | combination Emax [14]: 0.342 | combination Emax [15]: 0.102
